Experimental data: US7534871B2, “Preparation and use of carbohydrate-based bicyclic ring structures with antimicrobial and cytostatic activity” (Kemin Pharma B.V.B.A., priority 2004, dated 2009)
Values after ≈ are worked out from the molar mass of the structure shown. Like-named read-outs stand apart in the source and are kept apart here.

How the values were obtained:
[1] = test system: Candida albicans IHEM 10284 - ATCC 24433; assay: Anti-fungal activity, Bioscreen C growth curve: Candida albicans (yeast); format: cell-based; settings: for activity at 25 ppm: Candida albicans, ATCC24433, 35° C., 24 hours, negative control = 100, read-out: % of growth at a dose of 25 PPM compared to the negative control, Candida albicans IHEM 10284 - ATCC 24433
Experimental: (§1) For the determination of the anti-bacterial and anti-fungal activity the Bioscreen C Analyser Labsystems, Finland, was used. This is an automated reader-incubator. It measures growth continuously by vertical photometry (optical density), processes the data and provides a print out of the results. The area under the growth curve is automatically determined via the Biolink software.
The inoculum size of the yeast is standardized to 0.5-2.5×10^3 CFU/ml.
(§2) For bacteria, the 100-honey-well plates containing test chemical, Mueller-Hinton broth and inoculum (=sample) are incubated at 35° C. for 16 hours. Also wells without inoculum are incubated (=blanco). Yeasts are incubated 35° C. for 24 hours in RPMI 1640+MOPS buffer at 165 mM. Moulds also in RPMI 1640+MOPS buffer at 165 mM are incubated 25° C. for 5 days. All micro-organisms are screened against a known concentration of the reference antibiotics or antimycotics such as vancomycin, penicillin G, gentamicin or amphotericin B. The growth curve and the area under the growth curve can be determined using the Biolink software; this is illustrated in FIG. 1.
(§3) The area of the blanco is subtracted from the area of the sample, this number (delta) gives us an indication of the biological activity of the molecules tested and can be expressed as a % of growth at a specific dose compared to a negative control that has a value of 100, illustrated in FIG. 2. Screening of each dose of a specific compound is repeated 5 times. The dose used for all new molecules in all tests is 25 PPM or 25 μg/ml.
In Table 5 the anti-fungal activity is given for the new molecules. The micro-organisms used were Candida albicans (a typical yeast) and Microsporum gypseum (a typical mold).
as §1, with “Also for” for “For”, “the” for “the anti-bacterial and”, “Labsystems Oy, Finland” for “Labsystems, Finland,”, “used.” for “used. This is an automated reader-incubator.”
The inoculum size of the yeast is standardized to 0.5-2.5×10^3 CFU/ml. The inoculum size of the mould is standardized to 0.4-5.0×10^4 CFU/ml. Yeasts are incubated 35° C. for 24 hours in RPMI 1640+MOPS buffer at 165 mM. Moulds also in RPMI 1640+MOPS buffer at 165 mM are incubated 25° C. for 5 days.
As a control, all micro-organisms are screened against some reference antibiotics with known MIC. Screening of each dose of a specific compound is repeated 5 times.

[2] = test system: human cervix carcinoma cells (HeLa); assay: Cytostatic activity: inhibition of proliferation of HeLa cells; format: cell-based; settings: 50% inhibitory concentration, cell proliferation
Experimental: (§4) The compounds were tested for anti-tumor activity via the inhibitory effects on the proliferation of murine leukemia cells (L1210/0), murine mammary carcinoma cells (FM3A), human T-lymphocyte cells (Molt4/C8, CEM/0) and human cervix carcinoma cells (HeLa).

[3] = test system: E. faecalis ATTC29212 LMG 8222; assay: Anti-bacterial activity, Bioscreen C growth curve: E. faecalis; format: cell-based; settings: Enterococcus faecalis, LMG8222, 35° C., 16 hours, negative control = 100, read-out: % of growth at 25 PPM compared to the negative control, E. faecalis ATTC29212 LMG 8222
Experimental: as §1
(§5) The inoculum size of the bacteria is standardized to approximately 5×10^5 CFU/ml.
as §2, §3
(§6) In Table 4 the results of the anti-bacterial activity is given for the new molecules. The micro-organisms used are Staphylococcus aureus, MRSA, VRE, Enterococcus faecalis, Salmonella typhimurium and Pseudomonas aeruginosa.

[4] = test system: S. aureus ATTC29213 LMG10147; assay: Anti-bacterial activity, Bioscreen C growth curve: S. aureus; format: cell-based; settings: Staphylococcus aureus, 35° C., 16 hours, negative control = 100, read-out: % of growth at 25 PPM compared to the negative control, S. aureus ATTC29213 LMG10147
Experimental: as §1, §5, §2, §3, §6

[5] = test system: VV; assay: microbe, parasite or virus in culture; format: cell-based; settings: Orthopoxvirus vaccinia, E6SM, read-out: EC50 VV (E6SM)
[6] = test system: HSV-1 (KOS); assay: Anti-viral activity: HSV-1-induced cytopathicity in human embryo fibroblast E6SM cell cultures; format: cell-based, herpes simplex virus (HSV); settings: Human alphaherpesvirus 1, 50%
[7] = test system: human T-lymphocyte cells (Molt4/C8); assay: Cytostatic activity: inhibition of proliferation of Molt4/C8 cells; format: cell-based
Experimental: as §4

[8] = test system: murine mammary carcinoma cells (FM3A); assay: Cytostatic activity: inhibition of proliferation of FM3A cells; format: cell-based; settings: Mus musculus, read-out: IC50 FM3A/0
Experimental: as §4

[9] = test system: MRSA ATCC33591; assay: Anti-bacterial activity, Bioscreen C growth curve: MRSA; format: cell-based, methicillin-resistant Staphylococcus aureus (MRSA); settings: Staphylococcus aureus, ATCC 33591 / LMG10147 / MRSA; 25 PPM; 35° C., 16 hours; negative control = 100; read-out: % of growth at 25 PPM compared to the negative control, MRSA ATCC33591 LMG10147
Experimental: as §1, §5, §2, §3, §6

[10] = test system: human T-lymphocyte cells (CEM/0); assay: Cytostatic activity: inhibition of proliferation of CEM/0 cells; format: cell-based; settings: CCRF-CEM, read-out: IC50 CEM/0
Experimental: as §4

[11] = test system: P. aeruginosa ATCC27853 LMG16217; assay: Anti-bacterial activity, Bioscreen C growth curve: P. aeruginosa; format: cell-based, Pseudomonas aeruginosa; settings: for activity at 25 ppm: Pseudomonas aeruginosa, 35° C., 16 hours, negative control = 100, read-out: % of growth at 25 PPM compared to the negative control, P. aeruginosa ATCC27853 LMG16217
Experimental: as §1, §5, §2, §3, §6

[12] = test system: VZV OKA; assay: microbe, parasite or virus in culture; format: cell-based, varicella zoster virus (VZV); settings: for EC50: Human alphaherpesvirus 3, HEL, read-out: EC50 VZV (HEL) OKA
[13] = test system: S. typhimurium ATTC700408; assay: Anti-bacterial activity, Bioscreen C growth curve: S. typhimurium; format: cell-based; settings: Salmonella enterica, LMG16217 / TYPHIMURIUM, 35° C., 16 hours, negative control = 100, read-out: % of growth at 25 PPM compared to the negative control, S. typhimurium ATTC700408 LMG16217
Experimental: as §1, §5, §2, §3, §6

[14] = test system: HIV-2 (ROD); assay: Anti-viral activity: HIV-2-induced cytopathicity in human CEM cell cultures; format: cell-based; settings: Human immunodeficiency virus 2, CCRF-CEM; concentration required to inhibit HIV-induced cytopathicity in human CEM cell cultures by 50%
[15] = test system: murine leukemia cells (L1210/0); assay: Cytostatic activity: inhibition of proliferation of L1210/0 cells; format: cell-based; settings: Mus musculus
Experimental: as §4

[16] = Molt4/C8, 50% inhibitory concentration, cell proliferation, read-out: IC50 Molt4/C8
[17] = 50% inhibitory concentration, cell proliferation
[18] = L1210/0, 50% inhibitory concentration, cell proliferation, read-out: IC50 L1210/0

SMILES	activity at 25 ppm [1]	IC50 [2]	activity at 25 ppm [3]	activity at 25 ppm [4]	EC50 [5]	EC50 [6]	IC50 [7, 16]	IC50 [8, 17]	activity at 25 ppm [9]	IC50 [10, 17]	activity at 25 ppm [11]	EC50 [12]	activity at 25 ppm [13]	EC50 [14]	IC50 [15, 18]	other results
CO[C@@H]1[C@@H](OC)[C@H](Cc2ccccc2)O[C@@H]2CO[C@@H](c3ccccc3)O[C@@H]12 [KPE00001019]	98.5%	> 200 µg/mL	104%	109%	> 80 µg/mL	> 80 µg/mL	≥ 200 µg/mL	> 200 µg/mL	104%	≥ 200 µg/mL	105%	> 5 µg/mL	94.3%	> 100 µg/mL	> 200 µg/mL	–
CO[C@@H]1[C@@H](OC)[C@H](c2ccccc2)O[C@@H]2CO[C@@H](c3ccccc3)O[C@@H]12 [KPE00001015]	66.6%	104 ± 65 µg/mL (≈ 292 µM)	86%	104%	> 80 µg/mL	> 80 µg/mL	62 ± 3 µg/mL (≈ 174 µM)	> 200 µg/mL	117%	81 ± 10 µg/mL (≈ 227 µM)	90.4%	13 µg/mL (≈ 36.5 µM)	87.2%	> 4 µg/mL	≥ 200 µg/mL	activity against a yeast, in words ([1]; conclusion in text on Table 5): best activity
CO[C@@H]1[C@@H](OC)[C@H](Sc2ccccc2)O[C@@H]2COC(=O)CCCC/C=C/CCCCC(=O)O[C@@H]12 [KPE00001016.1]	98.4%	19 ± 5 µg/mL (≈ 38.6 µM)	76.5%	103%	> 3.2 µg/mL	> 3.2 µg/mL	39 ± 1 µg/mL (≈ 79.2 µM)	108 ± 9 µg/mL (≈ 219 µM)	115%	23 ± 0.5 µg/mL (≈ 46.7 µM)	29%	5 µg/mL (≈ 10.1 µM)	76.4%	> 4 µg/mL	20 ± 7 µg/mL (≈ 40.6 µM)	anti-bacterial activity against P. aeruginosa, in words ([11]; conclusion on Table 4): good anti-bacterial activity; anti-viral activity against VZV, in words ([12]; strain not named): especially active
CO[C@@H]1[C@@H](OC)[C@H](Cc2ccccc2)O[C@@H]2COC(=O)CC/C=C/CCC(=O)O[C@@H]12 [KPE00001022]	91.5%	~167 µg/mL (≈ 399 µM)	96.1%	102%	80 µg/mL (≈ 191 µM)	> 80 µg/mL	–	–	110%	–	90.9%	> 20 µg/mL	94%	> 20 µg/mL	–	IC50 ([7]; Molt4/C8, read-out: IC50 Molt4/C8): 69 ± 6 µg/mL (≈ 165 µM); IC50 [8]: 82 ± 14 µg/mL (≈ 196 µM); IC50 [10]: 48 ± 15 µg/mL (≈ 115 µM); IC50 ([15]; L1210/0, read-out: IC50 L1210/0): 80 µg/mL (≈ 191 µM)
CO[C@@H]1[C@@H](OC)[C@H](Sc2ccccc2)O[C@@H]2COC(=O)CCCC/C=C\CCCCC(=O)O[C@@H]12 [KPE00001016.2]	85%	169 ± 44 µg/mL (≈ 343 µM)	98.4%	97%	> 3.2 µg/mL	> 3.2 µg/mL	78 ± 53 µg/mL (≈ 158 µM)	> 200 µg/mL	104%	36 ± 16 µg/mL (≈ 73.1 µM)	79.8%	> 50 µg/mL	87%	> 100 µg/mL	158 ± 10 µg/mL (≈ 321 µM)	–
CO[C@@H]1[C@@H](OC)[C@H](Cc2ccccc2)O[C@@H]2COC(=O)CCCCCCCCC=CCCCCCCCCC(=O)O[C@@H]12 [KPE00001031E]	88.3%	> 200 µg/mL	85.5%	100%	> 400 µg/mL	≥ 400 µg/mL	≥ 200 µg/mL	≥ 200 µg/mL	104%	≥ 200 µg/mL	89.6%	> 5 µg/mL	91.7%	> 20 µg/mL	> 200 µg/mL	–
